# Data as given in ChEMBL document CHEMBL1201862, “PubChem BioAssay data set” (2004).
# Values joined by “and” are separate entries in the source; they are usually repeats but may differ in a detail not shown here. Identical values can stand only once. Active and inactive are the calls of the source.
# Key:
# Cytochrome P450 3A4 [1] = molecular target: T1, Cytochrome P450 3A4 (Homo sapiens, UniProt P08684); settings: Potency
# cells [2] = experiment: cells
# [3] = Trypanosoma cruzi growth suppression in host cells – NIH3T3 host cells, beta-gal luminescence, confirmation (AID 2044); type: functional, cell-based;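 further: intracellular parasites grown in NIH/3T3 mouse fibroblasts as host cells; luminescent beta-galactosidase reporter signal from transgenic T. cruzi replicating inside host cells; inhibitors lower the luminescence signal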
# [4] = NIH3T3 cell viability loss – ATP luminescence, mouse fibroblasts, counter-screen, dose response (AID 2010); type: functional, cell-based;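 further: cells exposed to compound for about 90 hours before reading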
# [5] = molecular target: T2, Short transient receptor potential channel 4 (Mus musculus, UniProt Q9QUQ5); experiment: calcium entry via TRPC4 opening agents – cell-based, HEK293 TRPC4/mu-opioid, Fluo-4 calcium, dose response (AID 434937); type: functional
# T2 sequence (Q9QUQ5 whole entry): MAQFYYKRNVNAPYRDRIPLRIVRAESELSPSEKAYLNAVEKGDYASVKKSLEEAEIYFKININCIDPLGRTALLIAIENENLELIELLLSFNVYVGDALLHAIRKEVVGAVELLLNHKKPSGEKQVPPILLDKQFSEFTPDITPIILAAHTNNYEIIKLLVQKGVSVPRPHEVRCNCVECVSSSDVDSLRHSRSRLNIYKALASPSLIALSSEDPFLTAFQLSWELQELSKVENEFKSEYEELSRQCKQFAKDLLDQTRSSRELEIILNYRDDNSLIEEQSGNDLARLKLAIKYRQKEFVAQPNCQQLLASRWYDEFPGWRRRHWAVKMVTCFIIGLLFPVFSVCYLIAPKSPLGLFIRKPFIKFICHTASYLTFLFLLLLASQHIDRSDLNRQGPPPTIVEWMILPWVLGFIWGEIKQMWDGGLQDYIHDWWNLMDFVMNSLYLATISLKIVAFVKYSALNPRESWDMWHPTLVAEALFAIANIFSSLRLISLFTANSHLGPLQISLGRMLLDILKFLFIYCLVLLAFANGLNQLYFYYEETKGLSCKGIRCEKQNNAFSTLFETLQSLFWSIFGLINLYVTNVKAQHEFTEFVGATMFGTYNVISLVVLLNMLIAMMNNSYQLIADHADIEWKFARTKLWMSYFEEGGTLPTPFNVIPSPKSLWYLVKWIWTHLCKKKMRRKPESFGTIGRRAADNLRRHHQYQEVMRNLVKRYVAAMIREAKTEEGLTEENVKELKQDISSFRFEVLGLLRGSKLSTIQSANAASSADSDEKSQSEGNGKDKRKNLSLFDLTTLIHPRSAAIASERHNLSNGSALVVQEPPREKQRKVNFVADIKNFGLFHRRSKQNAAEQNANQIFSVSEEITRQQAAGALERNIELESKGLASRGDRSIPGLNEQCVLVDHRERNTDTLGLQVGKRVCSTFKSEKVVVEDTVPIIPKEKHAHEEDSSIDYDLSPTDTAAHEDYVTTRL
# Cytochrome P450 3A4 [6] = molecular target: T1, Cytochrome P450 3A4
# Cytochrome P450 2C9 = Cytochrome P450 2C9 (Homo sapiens, UniProt P11712)
# [7] = molecular target: T3, DNA dC->dU-editing enzyme APOBEC-3A (Homo sapiens, UniProt P31941); experiment: Dose Response confirmation of small molecule APOBEC3A DNA Deaminase Inhibitors via a fluorescence-based single-stranded DNA deaminase assay. [Related pubchem assays (depositor defined):AID493011, AID493024]; type: functional
# [8] = molecular target: T4, DNA dC->dU-editing enzyme APOBEC-3G (Homo sapiens, UniProt Q9HC16); type: functional
# [9] = molecular target: T4, DNA dC->dU-editing enzyme APOBEC-3G; experiment: Dose Response confirmation of small molecule APOBEC3G DNA Deaminase Inhibitors via a fluorescence-based single-stranded DNA deaminase assay. [Related pubchem assays (depositor defined):AID493012, AID493028]; type: functional
# [10] = molecular target: T3, DNA dC->dU-editing enzyme APOBEC-3A; experiment: A3A deaminase inhibition for selectivity – biochemical, dose response (AID 504722); type: functional
# [11] = HEK-293T cell viability reduction – luminescence, B-cell screen hits, cytotoxicity control for BCR NF-kB inhibitor project, dose response (AID 489021); type: functional, cell-based;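 further: HEK-293T cells carrying an NF-kB luciferase reporter; cells exposed to compound for about 14 hours before viability readout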
# [12] = molecular target: T5, Alkaline phosphatase, tissue-nonspecific isozyme (Homo sapiens, UniProt P05186); experiment: potency against alkaline phosphatase TNAP – biochemical, luminescent, dose response, SAR follow-up (AID 1056)
# T5 sequence (P05186 whole entry): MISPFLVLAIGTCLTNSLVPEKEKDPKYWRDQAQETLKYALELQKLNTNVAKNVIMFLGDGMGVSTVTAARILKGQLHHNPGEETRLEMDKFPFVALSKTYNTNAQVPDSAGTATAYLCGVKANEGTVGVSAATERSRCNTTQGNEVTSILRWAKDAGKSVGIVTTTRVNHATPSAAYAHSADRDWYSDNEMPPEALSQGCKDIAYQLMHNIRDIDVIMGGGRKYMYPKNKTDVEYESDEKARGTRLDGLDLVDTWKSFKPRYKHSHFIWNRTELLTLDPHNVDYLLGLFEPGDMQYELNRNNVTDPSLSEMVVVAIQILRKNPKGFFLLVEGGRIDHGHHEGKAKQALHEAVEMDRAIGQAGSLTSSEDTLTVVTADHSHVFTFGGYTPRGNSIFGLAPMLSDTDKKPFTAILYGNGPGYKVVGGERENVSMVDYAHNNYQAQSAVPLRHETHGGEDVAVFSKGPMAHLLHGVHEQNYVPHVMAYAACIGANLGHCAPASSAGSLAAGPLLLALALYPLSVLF
# [13] = molecular target: Glyceraldehyde-3-phosphate dehydrogenase (Homo sapiens, UniProt P04406)
# [14] = Luminescence Cell-Based Dose Confirmation to Identify Activators of 5'UTR Stem-Loop Driven Alpha-Synuclein mRNA Translation in H4 Neuroglioblastoma Cells. [Related pubchem assays: 1829 (Project Summary), 1814 (Primary HTS)]; type: functional
# [15] = Luminescence Cell-Based Dose Response to Identify Activators of 5'UTR Stem-Loop Driven Prion Protein mRNA Translation in H4-C Neuroglioblastoma Cells. [Related pubchem assays: 1829 (Project Summary), 1814 (Primary HTS)]; type: functional
# H4 = experiment: Luminescence Cell-Based Dose Response HTS to Identify Activators of 5'UTR Stem-Loop Driven Prion Protein mRNA Translation in H4 Neuroglioblastoma Cells. [Related pubchem assays: 1829 (Project Summary), 1814 (Primary HTS)]; type: functional; settings: Homo sapiens
# [16] = Luminescence Cell-Based Dose Confirmation HTS to Identify Activators of 5'UTR Stem-Loop Driven Alpha-Synuclein mRNA Translation in H4 Neuroglioblastoma Cells. [Related pubchem assays: 1829 (Project Summary), 1814 (Primary HTS)]; type: functional
# [17] = Luminescence Cell-Based Dose Response to Identify Activators of Luciferase Translation or Activity in H4-C Neuroglioblastoma Cells. [Related pubchem assays: 1829 (Project Summary), 1814 (Primary HTS)]; type: functional
# [18] = Luminescence Cell-Based Dose Response HTS to Identify Activators of Luciferase Translation or Activity in H4 […] Cells. [Related pubchem assays: 1829 (Project Summary), 1814 (Primary HTS)]; type: functional
# [19] = THP-1 cell cytotoxicity, dose response, cytotoxicity control for non-replicating M. tuberculosis project (AID 489025); type: functional
# cells [20] = type: functional
# Troponin, cardiac muscle = Troponin, cardiac muscle (Homo sapiens, UniProt P19429+P45379+P63316); experiment: Fluorescence-based biochemical high throughput dose response assay for activators of the calcium sensitivity of cardiac Regulated Thin Filaments (RTF). [Related pubchem assays (depositor defined):AID493008, AID493018, AID504382, AID504383]; type: protein-complex assay
# [21] = molecular target: Induced myeloid leukemia cell differentiation protein Mcl-1 (Homo sapiens, UniProt Q07820); type: functional
# [22] = molecular target: Glucose-6-phosphate 1-dehydrogenase (Homo sapiens, UniProt P11413); experiment: inhibition of Homo sapiens G6PD, dose series – biochemical, fluorescence, selectivity assay for P. falciparum G6PD inhibitor project, dose response (AID 504792); type: functional
# H9c2 = experiment: cells; type: functional, cell-based; settings: Rattus norvegicus, H9c2, Myocardium;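 further: confirmatory concentration-response retest of ultra-high-throughput screening hits for modulation of myocardial damage; cell death induced by hydrogen peroxide oxidative stress; compound pretreatment for 60 min then peroxide exposure for 2 h; potency is for protecting the cells against peroxide damage rather than for killing them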
# [23] = molecular target: T6, RNA-binding protein pos-1 (Caenorhabditis elegans, UniProt G5EF15); experiment: disruptors of C. elegans POS-1 RNA interaction – biochemical, fluorescence polarization, dose response (AID 1964);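 further: purified POS-1 fused to maltose binding protein made in E. coli; potency of compounds blocking POS-1 binding to fluorescent RNA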
# T6 sequence (G5EF15 whole entry): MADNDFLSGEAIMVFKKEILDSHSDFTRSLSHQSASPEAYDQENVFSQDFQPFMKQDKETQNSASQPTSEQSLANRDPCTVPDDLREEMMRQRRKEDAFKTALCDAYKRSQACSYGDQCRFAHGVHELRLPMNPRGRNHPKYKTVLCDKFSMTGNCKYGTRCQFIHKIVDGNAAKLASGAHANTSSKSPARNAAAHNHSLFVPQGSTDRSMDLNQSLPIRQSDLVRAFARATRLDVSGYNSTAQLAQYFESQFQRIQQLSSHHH
# [24] = molecular target: T7, Zinc finger protein mex-5 (Caenorhabditis elegans, UniProt Q9XUB2); experiment: potency of MEX-5 RNA-binding blockers – biochemical, C. elegans, fluorescence polarization, dose response (AID 1960)
# T7 sequence (Q9XUB2 whole entry): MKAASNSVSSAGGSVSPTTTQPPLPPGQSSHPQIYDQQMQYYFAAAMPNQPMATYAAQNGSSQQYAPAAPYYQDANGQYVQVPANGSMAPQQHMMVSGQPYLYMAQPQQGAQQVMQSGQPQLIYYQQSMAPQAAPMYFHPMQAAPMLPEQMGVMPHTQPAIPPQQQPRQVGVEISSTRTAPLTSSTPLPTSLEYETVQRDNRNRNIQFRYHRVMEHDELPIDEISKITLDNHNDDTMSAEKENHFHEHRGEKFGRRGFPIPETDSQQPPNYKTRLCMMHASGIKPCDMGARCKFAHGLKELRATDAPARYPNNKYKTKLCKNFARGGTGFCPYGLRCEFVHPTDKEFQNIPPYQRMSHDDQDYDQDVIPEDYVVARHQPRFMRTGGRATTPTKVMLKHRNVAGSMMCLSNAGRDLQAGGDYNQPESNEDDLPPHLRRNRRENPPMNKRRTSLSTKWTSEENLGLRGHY
# T3 sequence (P31941 whole entry): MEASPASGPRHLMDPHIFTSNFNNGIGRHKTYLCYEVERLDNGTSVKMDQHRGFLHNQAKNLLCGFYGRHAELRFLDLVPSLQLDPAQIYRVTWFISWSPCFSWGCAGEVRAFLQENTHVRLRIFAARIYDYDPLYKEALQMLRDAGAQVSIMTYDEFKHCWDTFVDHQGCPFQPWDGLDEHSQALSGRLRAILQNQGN
# T1 sequence (P08684 whole entry): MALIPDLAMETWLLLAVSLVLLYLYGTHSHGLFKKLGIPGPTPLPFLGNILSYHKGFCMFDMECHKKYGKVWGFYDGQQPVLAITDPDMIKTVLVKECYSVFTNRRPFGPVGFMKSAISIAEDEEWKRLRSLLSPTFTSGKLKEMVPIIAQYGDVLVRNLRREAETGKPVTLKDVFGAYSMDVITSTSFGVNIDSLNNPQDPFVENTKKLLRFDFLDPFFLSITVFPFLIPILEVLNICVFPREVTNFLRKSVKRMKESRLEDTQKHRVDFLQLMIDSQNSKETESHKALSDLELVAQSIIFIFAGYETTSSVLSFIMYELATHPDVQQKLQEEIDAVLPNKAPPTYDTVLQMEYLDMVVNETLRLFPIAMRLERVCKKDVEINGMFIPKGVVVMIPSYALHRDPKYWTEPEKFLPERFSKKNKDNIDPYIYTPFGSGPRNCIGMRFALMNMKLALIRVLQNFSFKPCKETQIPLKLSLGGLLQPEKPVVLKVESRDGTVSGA
# T4 sequence (Q9HC16 whole entry): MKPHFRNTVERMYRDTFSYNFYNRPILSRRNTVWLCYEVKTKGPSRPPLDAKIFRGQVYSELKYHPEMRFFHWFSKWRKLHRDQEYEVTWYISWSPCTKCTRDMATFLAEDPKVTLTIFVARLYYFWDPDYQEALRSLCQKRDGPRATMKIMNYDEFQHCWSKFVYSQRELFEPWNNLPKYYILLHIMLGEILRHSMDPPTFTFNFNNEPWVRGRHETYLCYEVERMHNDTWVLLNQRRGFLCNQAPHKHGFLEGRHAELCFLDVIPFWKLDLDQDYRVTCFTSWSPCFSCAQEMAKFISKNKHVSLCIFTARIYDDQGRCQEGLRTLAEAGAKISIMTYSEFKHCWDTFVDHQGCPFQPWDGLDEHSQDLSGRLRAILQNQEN
# Cytochrome P450 2C9, sequence (P11712 whole entry): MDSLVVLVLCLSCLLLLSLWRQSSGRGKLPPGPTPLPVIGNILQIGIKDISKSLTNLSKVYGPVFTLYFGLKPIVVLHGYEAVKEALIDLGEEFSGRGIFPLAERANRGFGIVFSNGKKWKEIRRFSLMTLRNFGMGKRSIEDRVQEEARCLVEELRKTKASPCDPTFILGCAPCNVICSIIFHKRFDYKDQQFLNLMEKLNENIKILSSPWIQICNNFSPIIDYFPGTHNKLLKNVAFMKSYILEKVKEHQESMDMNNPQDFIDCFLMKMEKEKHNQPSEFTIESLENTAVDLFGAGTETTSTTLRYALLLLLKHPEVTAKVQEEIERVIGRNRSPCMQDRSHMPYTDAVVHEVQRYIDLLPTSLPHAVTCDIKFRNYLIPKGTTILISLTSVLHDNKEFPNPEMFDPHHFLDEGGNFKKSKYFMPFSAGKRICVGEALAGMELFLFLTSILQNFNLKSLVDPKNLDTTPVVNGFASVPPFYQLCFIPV
# Glyceraldehyde-3-phosphate dehydrogenase, sequence (P04406 whole entry): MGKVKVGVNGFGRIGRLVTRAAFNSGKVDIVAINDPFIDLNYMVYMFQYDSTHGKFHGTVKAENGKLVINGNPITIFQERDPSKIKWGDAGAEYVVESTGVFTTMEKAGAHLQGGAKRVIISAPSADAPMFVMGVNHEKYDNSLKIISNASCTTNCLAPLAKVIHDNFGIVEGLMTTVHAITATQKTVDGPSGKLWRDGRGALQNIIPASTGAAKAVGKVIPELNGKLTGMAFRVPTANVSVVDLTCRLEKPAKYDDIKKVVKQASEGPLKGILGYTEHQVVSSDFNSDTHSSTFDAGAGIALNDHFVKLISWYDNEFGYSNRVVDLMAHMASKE
# Induced myeloid leukemia cell differentiation protein Mcl-1, sequence (Q07820 whole entry): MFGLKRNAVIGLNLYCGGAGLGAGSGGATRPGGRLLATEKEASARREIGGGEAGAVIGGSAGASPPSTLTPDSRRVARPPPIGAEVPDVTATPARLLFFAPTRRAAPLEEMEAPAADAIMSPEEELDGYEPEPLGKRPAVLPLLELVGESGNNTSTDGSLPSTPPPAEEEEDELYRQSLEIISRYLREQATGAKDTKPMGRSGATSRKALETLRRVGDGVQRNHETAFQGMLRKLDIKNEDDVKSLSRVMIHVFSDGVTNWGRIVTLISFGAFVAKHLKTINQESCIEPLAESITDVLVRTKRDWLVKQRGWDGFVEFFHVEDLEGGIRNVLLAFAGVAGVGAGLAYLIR
# Glucose-6-phosphate 1-dehydrogenase, sequence (P11413 whole entry): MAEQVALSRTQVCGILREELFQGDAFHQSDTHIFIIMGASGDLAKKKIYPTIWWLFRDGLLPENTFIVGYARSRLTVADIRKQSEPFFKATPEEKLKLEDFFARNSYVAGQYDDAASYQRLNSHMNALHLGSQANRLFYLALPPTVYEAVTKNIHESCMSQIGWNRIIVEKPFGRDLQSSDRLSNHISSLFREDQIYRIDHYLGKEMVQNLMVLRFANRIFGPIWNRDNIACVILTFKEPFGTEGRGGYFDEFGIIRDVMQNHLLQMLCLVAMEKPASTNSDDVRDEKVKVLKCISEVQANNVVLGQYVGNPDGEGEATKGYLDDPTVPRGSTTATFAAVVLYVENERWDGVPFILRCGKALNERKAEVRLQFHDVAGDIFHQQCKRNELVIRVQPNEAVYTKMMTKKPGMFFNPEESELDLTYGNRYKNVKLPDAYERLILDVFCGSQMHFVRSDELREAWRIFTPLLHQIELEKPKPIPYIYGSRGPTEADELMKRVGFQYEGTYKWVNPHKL
compound,measurement,setting,value
COCCNc1nc(C)nc2c1nc(-c1ccccc1)n2CCN1CCCC1,AC50,Cytochrome P450 3A4 [1],25.1 µM (inconclusive)
O=C(NCCc1c[nH]cn1)c1ccc(-c2ccccc2)cc1,EC50,cells [2],0.062 µM (active)
same,EC50,[3],< 0.1 µM (active)
same,EC50,[4],> 30 µM (not active)
same,EC50,[5],5.96 µM (active)
Cc1ccc2c(c1)C1(SCCS1)C(=O)N2,AC50,Cytochrome P450 3A4 [6],11.2 µM (inconclusive)
same,AC50,Cytochrome P450 2C9,inconclusive
COC(=O)c1cnn(C(=O)c2cc(OC)ccc2Br)c1N,AC50,Cytochrome P450 2C9,inconclusive
COc1cccc(C(=O)N/N=C/c2ccc(Oc3ccc([N+](=O)[O-])cn3)c(OC)c2)c1,IC50,[7],3.44 µM (active)
same,IC50,[8],3.84 µM (active)
Cc1ccc(/C=N/n2c(S)nnc2-c2ccncc2)o1,IC50,[9],6.55 µM (active)
same,IC50,[10],> 100 µM (inactive)
CCN(CC)c1ccc(/C=C2/C(=O)ON=C2C)cc1,IC50,[11],> 80 µM (inactive)
Cc1ccc(S(=O)(=O)Nc2ccc3ccccc3c2)cc1,IC50,[12],> 100 µM (inactive)
same,IC50,[13],> 100 µM (not active)
CC(=C\C(=O)O)/C(=C/c1ccccc1)C(=O)O,AC50,Cytochrome P450 2C9,inconclusive
CCCCC/C=C\C/C=C\C/C=C\C/C=C\CCCC(=O)O [ARACHIDONIC ACID],AC50,Cytochrome P450 3A4 [1],39.8 µM (inconclusive) and 7.94 µM (inconclusive)
C[N+](C)(C)CCOC(=O)C1(c2ccccc2)CCCC1,IC50,[7],1.06 µM (active)
same,IC50,[8],1.12 µM (active)
Cc1ccc(NC(=O)C2CCCN(c3ncccn3)C2)cc1F (stereo not given),EC50,[14],0.141 µM (active)
same,EC50,[15],1.22 µM (active)
same,EC50,H4,6.45 µM (active)
same,EC50,[16],< 0.1 µM (active)
same,EC50,[17],0.856 µM (active)
same,EC50,[18],0.125 µM (inconclusive)
O=S(=O)(Nc1cnc2ccccc2c1)c1ccc(Br)cc1OC(F)(F)F,IC50,[12],1.5 µM (active)
same,IC50,[13],> 100 µM (not active)
Cc1ccccc1OCCNc1cc(N2CC(C)NC(C)C2)ccc1[N+](=O)[O-] (stereo not given),CC50,[19],21.4 µM (active)
same,IC50,cells [20],12.8 µM (active)
Nn1c(COc2ccc(Cl)cc2)n[nH]c1=S,IC50,[9],2.49 µM (active)
same,IC50,[10],> 100 µM (inactive)
CN(CC(=O)NCc1ccco1)S(=O)(=O)c1cccc2cccnc12,EC50,"Troponin, cardiac muscle",> 71.5 µM (inactive)
CCc1nc(NCCc2ccccn2)c2nnn(Cc3ccccc3F)c2n1,EC50,[5],2.66 µM (active)
Fc1ccccc1/C=N/n1c(S)nnc1-c1cccnc1,IC50,[9],3.16 µM (active)
same,IC50,[10],> 100 µM (inactive)
Cn1c(SCC(=O)Nc2ccc3nc(SCC(=O)N4CCCC4)sc3c2)nnc1-c1ccccc1,IC50,[21],2.83 µM (active)
Fc1ccc(/C=N/NC2=Nc3cccc4cccc2c34)cc1,EC50,[14],0.278 µM (active)
same,EC50,[15],0.233 µM (active)
same,EC50,H4,< 0.1 µM (active)
same,EC50,[17],0.343 µM (active)
same,EC50,[18],< 0.1 µM (inconclusive)
Nc1cccc2ccccc12,AC50,Cytochrome P450 3A4 [1],31.6 µM (inconclusive)
Cc1cc(C)c2sc(NC(=O)C3=COCCO3)nc2c1,IC50,[22],> 80 µM (inactive)
COC(=O)c1cc(N2CCNCC2)nc2ccccc12,EC50,[5],1.19 µM (active)
Cc1ccc(C)c(S(=O)(=O)N2CCN(C(=O)CCc3nc(O)c4ccccc4n3)CC2)c1,IC50,H9c2,> 79 µM (inactive)
same,EC50,[5],4.73 µM (active)
CC(=O)N1CCc2c(sc(NC(=O)C3CCCN3S(=O)(=O)c3cccs3)c2C(N)=O)C1 (stereo not given),EC50,"Troponin, cardiac muscle",18.5 µM (inactive)
same,EC50,[23],10.2 µM (active)
same,EC50,[24],5.83 µM (active)
Cn1c(=O)c2c(SCC(=O)Nc3ccccc3F)nc(-c3ccccc3F)nc2n(C)c1=O,IC50,[11],> 80 µM (inactive)
